These results are taken from patent US20260317337A1, “HETEROCYCLIC COMPOUNDS FOR IMAGING AGGREGATED ALPHA SYNUCLEIN IN THE SYNUCLEINOPATHIES” (THE TRUSTEES OF THE UNIVERSITY OF PENNSYLVANIA, priority 2023, published 2026).

This test has as its target α-synuclein fibrils (Homo sapiens, UniProt P37840). In words: Competitive radioligand binding with [^3H]BF2846 on α-synuclein fibrils. The conditions noted are these: [^3H]BF2846, α-synuclein fibrils; mean + Sd, n = 3; read-out: α-syn Ki. How it is done:
Competition binding assays were performed with [^3H]BF2846 and [^3H]PIB to measure affinity to Asyn and Aβ. […]

On to `CCOC(=O)c1cnc(N2CCN(c3cnc4ccccc4c3)CC2)nc1N` [Compound 14, Ethyl 4-amino-2-(4-(quinolin-3-yl)piperazin-1-yl)pyrimidine-5-carboxylate], for which the Ki (commonly a measure of affinity in units of concentration, obtained from inhibition or displacement) was 3.1 nM.

Regarding `COc1ccc(NC(=O)c2cnc(N3CCN(c4ccc(OC)cc4)CC3)nc2N)cc1` [Compound 33, 4-Amino-N-(4-methoxyphenyl)-2-(4-(4-methoxyphenyl)piperazin-1-yl)pyrimidine-5-carboxamide], the Ki amounted to 44.5 nM.

For the compound `COc1ccc(NC(=O)c2cnc(N3CC4CCC(C3)N4c3cc4ccccc4cn3)nc2N)cc1` [Compound 21, 4-Amino-2-(8-(isoquinolin-3-yl)-3,8-diazabicyclo[3.2.1]octan-3-yl)-N-(4-methoxyphenyl)pyrimidine-5-carboxamide], the Ki is 255 nM.

For `CCOC(=O)c1cnc(N2CC3CCC(C2)N3c2cc3ccccc3cn2)nc1N` [Compound 5, Ethyl 4-amino-2-(8-(isoquinolin-3-yl)-3,8-diazabicyclo[3.2.1]octan-3-yl)pyrimidine-5-carboxylate], the Ki is 58.5 nM.

On to `CCOC(=O)c1cnc(N2CCN(c3cnc4ccccc4n3)CC2)nc1N` [Compound 16, Ethyl 4-amino-2-(4-(quinoxalin-2-yl)piperazin-1-yl)pyrimidine-5-carboxylate], for which the Ki came out at 2.4 nM.

For the compound `N#Cc1cnc(N2CCN(c3ccccn3)CC2)nc1N` [Compound 41, 4-Amino-2-(4-(pyridin-2-yl)piperazin-1-yl)pyrimidine-5-carbonitrile], the Ki turned out to be 7.5 nM.

As for `CCOC(=O)c1cnc(N2C3CCC2CN(c2ccccn2)C3)nc1N` [Compound 1, Ethyl 4-amino-2-(3-(pyridin-2-yl)-3,8-diazabicyclo[3.2.1]octan-8-yl)pyrimidine-5-carboxylate], the Ki is 11.6 nM.

In the case of `CCOC(=O)c1cnc(N2CCN(c3nc4ccccc4o3)CC2)nc1N` [Compound 10, Ethyl 4-amino-2-(4-(benzo[d]oxazol-2-yl)piperazin-1-yl)pyrimidine-5-carboxylate], the Ki was 2.5 nM.

For the compound `CCOC(=O)c1cnc(N2CCN(c3ncccn3)CC2)nc1N` [Compound 119, Ethyl 4-amino-2-(4-(pyrimidin-2-yl)piperazin-1-yl)pyrimidine-5-carboxylate], the Ki is 19.5 nM.

Regarding `COc1ccc(NC(=O)c2cnc(N3C4CCC3CN(c3cc5ccccc5cn3)C4)nc2N)cc1` [Compound 19, 4-Amino-2-(3-(isoquinolin-3-yl)-3,8-diazabicyclo[3.2.1]octan-8-yl)-N-(4-methoxyphenyl)pyrimidine-5-carboxamide], the Ki worked out at 45 nM.

For the compound `Nc1nc(N2CCN(c3ccccn3)CC2)ncc1C(=O)Nc1ccc(OC[C@H](O)CF)cc1` [Compound 135, (S)-4-amino-N-(4-(3-fluoro-2-hydroxypropoxy)phenyl)-2-(4-(pyridin-2-yl)piperazin-1-yl)pyrimidine-5-carboxamide], the Ki came to 16.9 nM.

In the case of `COc1ccc(C(=O)Nc2ccc(N3CCN(c4ccccn4)CC3)cn2)cc1` [Compound 109, 4-methoxy-N-(5-(4-(pyridin-2-yl)piperazin-1-yl)pyridin-2-yl)benzamide], the Ki is 5 ± 0.34 nM.

For `Cc1cnc(N2CCN(c3ccccn3)CC2)nc1N` [Compound 39, 5-Methyl-2-(4-(pyridin-2-yl)piperazin-1-yl)pyrimidin-4-amine], the inhibition constant (Ki) was 84.1 nM.

For the compound `CCOC(=O)c1cnc(N2CCN(c3cnccn3)CC2)nc1N` [Compound 121, Ethyl 4-amino-2-(4-(pyrazin-2-yl)piperazin-1-yl)pyrimidine-5-carboxylate], the Ki is 8.4 nM.

On to `CCOC(=O)c1cnc(N2CCN(c3nccs3)CC2)nc1N` [Compound 123, Ethyl 4-amino-2-(4-(thiazol-2-yl)piperazin-1-yl)pyrimidine-5-carboxylate], for which the Ki came out at 51.1 nM.

Take `COc1ccc(C(=O)Nc2ccc(N3CCC4(CC3)CCN(c3ccccn3)C4)cc2)cc1` [Compound 101, 4-methoxy-N-(4-(2-(pyridin-2-yl)-2,8-diazaspiro[4.5]decan-8-yl)phenyl)benzamide]: the Ki is 21.9 ± 9.7 nM.

For the compound `COc1ccc(C(=O)Nc2ccc(N3C4CCC3CN(c3ccccn3)C4)cc2)cc1` [Compound 103, 4-methoxy-N-(4-(3-(pyridin-2-yl)-3,8-diazabicyclo[3.2.1]octan-8-yl)phenyl)benzamide], the Ki is 6.1 ± 2.1 nM.

Consider `COc1ccc(NC(=O)c2cnc(N3CCN(c4cccnc4)CC3)nc2N)cc1` [Compound 118, 4-Amino-N-(4-methoxyphenyl)-2-(4-(pyridin-3-yl)piperazin-1-yl)pyrimidine-5-carboxamide], for which the inhibitory constant (Ki) is 142 nM.

Regarding `COc1ccc(C(=O)Nc2ccc(N3C4CCC3CN(c3ccccn3)C4)cn2)cc1` [Compound 110, 4-methoxy-N-(5-(3-(pyridin-2-yl)-3,8-diazabicyclo[3.2.1]octan-8-yl)pyridin-2-yl)benzamide], the Ki is 44.1 ± 32 nM.

For `COc1ccc(NC(=O)c2cnc(N3CCN(c4nc5ccccc5o4)CC3)nc2N)cc1` [Compound 26, 4-Amino-2-(4-(benzo[d]oxazol-2-yl)piperazin-1-yl)-N-(4-methoxyphenyl)pyrimidine-5-carboxamide], the Ki came out at 6 nM.

As to `CCOC(=O)c1cnc(N2C3CCC2CN(c2cc4ccccc4cn2)C3)nc1N` [Compound 2, Ethyl 4-amino-2-(3-(isoquinolin-3-yl)-3,8-diazabicyclo[3.2.1]octan-8-yl)pyrimidine-5-carboxylate], the Ki stood at 26.3 nM.

On to `CCOC(=O)c1cnc(N2CCN(c3ccccn3)CC2)nc1N` [Compound 9, Ethyl 4-amino-2-(4-(pyridin-2-yl)piperazin-1-yl)pyrimidine-5-carboxylate], for which the Ki was found to be 4 nM.

Consider `COc1ccc(C(=O)Nc2ccc(N3CCCN(c4ccccn4)CC3)cc2)cc1` [Compound 107, 4-methoxy-N-(4-(4-(pyridin-2-yl)-1,4-diazepan-1-yl)phenyl)benzamide], for which the Ki was found to be 8.7 ± 0.6 nM.

Take `COc1ccc(C(=O)Nc2ccc(N3CC(OC)C3)cc2)cc1` [Compound 115, 4-methoxy-N-(4-(3-methoxyazetidin-1-yl)phenyl)benzamide]: the Ki worked out at 28.6 ± 33 nM.

As to `CCOC(=O)c1cnc(N2CCN(c3ccc(OC)cc3)CC2)nc1N` [Compound 17, Ethyl 4-amino-2-(4-(4-methoxyphenyl)piperazin-1-yl)pyrimidine-5-carboxylate], the Ki worked out at 12.8 nM.

Regarding `CCOC(=O)c1cnc(N2C3CCC2CN(c2cnc4ccccc4c2)C3)nc1N` [Compound 3, Ethyl 4-amino-2-(3-(quinolin-3-yl)-3,8-diazabicyclo[3.2.1]octan-8-yl)pyrimidine-5-carboxylate], the Ki came to 23.3 nM.

Take `Nc1nc(N2CCN(c3ccccn3)CC2)ncc1C(=O)OCCO` [Compound 37, 2-Hydroxyethyl 4-amino-2-(4-(pyridin-2-yl)piperazin-1-yl)pyrimidine-5-carboxylate]: the Ki stood at 41.4 nM.

`CCOC(=O)c1cnc(N2CCCN(c3ccccn3)CC2)nc1N` [Compound 7, Ethyl 4-amino-2-(4-(pyridin-2-yl)-1,4-diazepan-1-yl)pyrimidine-5-carboxylate]: the Ki was 8.9 nM.

On to `Nc1nc(N2CCN(c3ccccn3)CC2)ncc1C(=O)Nc1ccc(F)cc1` [Compound 34, 4-Amino-N-(4-fluorophenyl)-2-(4-(pyridin-2-yl)piperazin-1-yl)pyrimidine-5-carboxamide], for which the Ki was determined as 10 nM.

Consider `CCOC(=O)c1cnc(N2CCN(c3cc4ccccc4cn3)CC2)nc1N` [Compound 13, Ethyl 4-amino-2-(4-(isoquinolin-3-yl)piperazin-1-yl)pyrimidine-5-carboxylate], for which the Ki amounted to 12.1 nM.

`COc1ccc(C(=O)Nc2ccc(N3C4CCC3CN(c3cnc5ccccc5n3)C4)cc2)cc1` [Compound 105, 4-methoxy-N-(4-(3-(quinoxalin-2-yl)-3,8-diazabicyclo[3.2.1]octan-8-yl)phenyl)benzamide]: the Ki stood at 47.6 ± 14 nM.

For the compound `CCOC(=O)c1cnc(N2CC3CCC(C2)N3c2ccccn2)nc1N` [Compound 4, Ethyl 4-amino-2-(8-(pyridin-2-yl)-3,8-diazabicyclo[3.2.1]octan-3-yl)pyrimidine-5-carboxylate], the Ki stood at 5.5 nM.

Turning to `COc1ccc(NC(=O)c2cnc(N3CCN(c4nc5ccccc5s4)CC3)nc2N)cc1` [Compound 27, 4-Amino-2-(4-(benzo[d]thiazol-2-yl)piperazin-1-yl)-N-(4-methoxyphenyl)pyrimidine-5-carboxamide], the Ki was found to be 1.1 nM.

Consider `CCOC(=O)c1cnc(N2C3CCC2CN(c2nc4ccccc4s2)C3)nc1N` [Compound 12, Ethyl 4-amino-2-(3-(benzo[d]thiazol-2-yl)-3,8-diazabicyclo[3.2.1]octan-8-yl)pyrimidine-5-carboxylate], for which the Ki came out at 23.4 nM.

For `COc1ccc(NC(=O)c2cnc(Cl)nc2)cc1` [Compound 43, 2-Chloro-N-(4-methoxyphenyl)pyrimidine-5-carboxamide], the Ki came to 6.5 nM.

Regarding `Nc1nc(N2CCN(c3nc4ccccc4o3)CC2)ncc1C(=O)Nc1ccc(OCCF)cc1` [Compound 133, 4-Amino-2-(4-(benzo[d]oxazol-2-yl)piperazin-1-yl)-N-(4-(2-fluoroethoxy)phenyl)pyrimidine-5-carboxamide], the Ki amounted to 1.26 nM.

`O=C(Nc1ccc(N2C3CCC2CN(c2ccccn2)C3)cc1)c1ccc(OCCF)cc1` [Compound 116, 4-(2-fluoroethoxy)-N-(4-(3-(pyridin-2-yl)-3,8-diazabicyclo[3.2.1]octan-8-yl)phenyl)benzamide]: the Ki worked out at 12.7 ± 2.3 nM.

With `COc1ccc(NC(=O)c2cnc(N3CC4CCC(C3)N4c3cnc4ccccc4c3)nc2N)cc1` [Compound 126, 4-Amino-N-(4-methoxyphenyl)-2-(8-(quinolin-3-yl)-3,8-diazabicyclo[3.2.1]octan-3-yl)pyrimidine-5-carboxamide], the Ki was found to be 522 nM.

Turning to `Nc1nc(N2CCN(c3ccccn3)CC2)ncc1C(=O)Nc1ccc(OC[C@@H](O)CF)cc1` [Compound 136, (R)-4-amino-N-(4-(3-fluoro-2-hydroxypropoxy)phenyl)-2-(4-(pyridin-2-yl)piperazin-1-yl)pyrimidine-5-carboxamide], the Ki is 24.8 nM.
